These results are taken from ChEMBL document CHEMBL1158401, “Development of CoMFA and CoMSIA models of affinity and selectivity for indole ligands of cannabinoid CB1 and CB2 receptors” (Eur J Med Chem, 2009).

Assay [1] can be described thus: Selectivity ratio of pKi for human cloned CB2 receptor to pKi for CB1 receptor in rat brain. Type of assay: tissue-based.
Assay [2] can be described thus: Selectivity ratio of pKi for CB1 receptor in rat brain to pKi for human cloned CB2 receptor. The assay is classed as tissue-based.
A further assay concerns the target Cannabinoid receptor 2 (Homo sapiens, UniProt P34972). Put plainly: Displacement of [3H]CP-55940 from human cloned CB2 receptor by filtration assay. For orientation: In a radioligand displacement assay an active substance lowers the binding of a labelled ligand.
For another assay, the target named is Cannabinoid receptor 1 (Rattus norvegicus, UniProt P20272). The assay can be described thus: Displacement of [3H]CP-55940 from CB1 receptor in rat brain by filtration assay. The assay is classed as tissue-based.
Cannabinoid receptor 1, sequence (P20272 whole entry): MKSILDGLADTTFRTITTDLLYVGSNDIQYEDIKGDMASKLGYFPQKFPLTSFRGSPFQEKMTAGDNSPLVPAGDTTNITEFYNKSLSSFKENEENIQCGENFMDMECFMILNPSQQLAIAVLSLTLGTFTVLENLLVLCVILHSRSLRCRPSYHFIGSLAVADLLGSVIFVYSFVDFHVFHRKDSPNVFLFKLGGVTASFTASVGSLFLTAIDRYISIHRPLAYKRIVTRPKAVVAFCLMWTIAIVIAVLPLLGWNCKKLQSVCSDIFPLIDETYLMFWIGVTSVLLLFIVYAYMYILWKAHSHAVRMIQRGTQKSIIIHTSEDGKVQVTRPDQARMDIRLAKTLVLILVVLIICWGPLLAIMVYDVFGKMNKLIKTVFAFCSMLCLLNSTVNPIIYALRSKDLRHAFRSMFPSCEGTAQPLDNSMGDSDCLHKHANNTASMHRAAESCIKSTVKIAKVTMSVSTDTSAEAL

Cannabinoid receptor 2, sequence (P34972 whole entry): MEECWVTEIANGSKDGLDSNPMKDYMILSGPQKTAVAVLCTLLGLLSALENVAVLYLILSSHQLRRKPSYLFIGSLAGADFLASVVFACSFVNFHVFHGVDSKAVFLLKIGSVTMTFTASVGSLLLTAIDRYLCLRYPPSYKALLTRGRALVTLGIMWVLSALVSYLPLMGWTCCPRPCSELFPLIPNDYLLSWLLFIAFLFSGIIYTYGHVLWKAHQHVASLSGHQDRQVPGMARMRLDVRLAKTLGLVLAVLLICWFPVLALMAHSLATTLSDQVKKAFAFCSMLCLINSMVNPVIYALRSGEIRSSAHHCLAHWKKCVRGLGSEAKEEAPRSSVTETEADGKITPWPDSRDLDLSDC

As to `CCCn1c(C)c(C(=O)c2ccc(CC)c3ccccc23)c2ccccc21`, the results for the Ratio pKi in assay [1] and in assay [2] were 1.11 and 0.903, respectively.

In the case of `CCCCCn1cc(C(=O)Cc2ccc(F)cc2)c2ccccc21`, the Ratio pKi worked out at 1.01 in assay [1] and 0.99 in assay [2].

On to `CCCc1ccc(C(=O)c2c(C)n(CCC)c3ccccc23)c2ccccc12`, for which the Ratio pKi in assay [1] was 1.09; in assay [2] it was 0.919.

With `CCCCCn1cc(C(=O)Cc2ccccc2)c2ccccc21`, the Ratio pKi in assay [1] was 0.964; in assay [2], 1.04.

For `CCCCCn1cc(C(=O)Cc2ccc(Br)cc2)c2ccccc21`, the Ratio pKi in assay [2] was found to be 0.969.

For `CCCn1c(C)c(C(=O)c2cccc3ccc(OC)cc23)c2ccccc21`, the Ratio pKi came out at 1.09 in assay [1] and 0.913 in assay [2].

On to `CCCCCn1cc(C(=O)Cc2cccc(Cl)c2)c2ccccc21`, for which the figures for the Ratio pKi in assay [1] and in assay [2] were 0.939 and 1.06, respectively.

Take `CCCCCn1c(C)c(C(=O)Cc2ccc(OC)cc2)c2ccccc21`: the Ratio pKi was determined as 1.07 in assay [1] and 0.933 in assay [2].

As usually defined, the Ki is a dissociation constant, usually derived from enzyme kinetics or from competition with a known ligand. Low values mean a stronger hold on the target, high ones a looser hold on the target. As to `CCCCCn1c(C)c(C(=O)c2cccc3ccc(C)cc23)c2ccccc21`, the values for the Ratio pKi in assay [1] and in assay [2] were 1.17 and 0.856, respectively. Besides, the Ki is 0.49 nM at Cannabinoid receptor 2 and 10.7 nM at Cannabinoid receptor 1.

On to `CCCCCn1cc(C(=O)c2cccc3ccc(OC)cc23)c2ccccc21`, for which the figures for the Ratio pKi in assay [1] and in assay [2] were 0.997 and 1, respectively.

As for `CCCCCn1cc(C(=O)Cc2cccc(F)c2)c2ccccc21`, the Ratio pKi in assay [1] was 0.985; in assay [2], 1.01.

On to `CCCCCn1cc(C(=O)c2cccc3ccc(CC)cc23)c2ccccc21`, for which the Ratio pKi in assay [1] was determined as 1.04; in assay [2] it was 0.959.

Take `CCCn1cc(C(=O)c2ccc(CC)c3ccccc23)c2ccccc21`: the Ratio pKi came out at 1.07 in assay [1] and 0.935 in assay [2].

For the compound `CCCCCn1c(C)c(C(=O)Cc2ccccc2Br)c2ccccc21`, the Ratio pKi in assay [1] was found to be 0.963; in assay [2] it was 1.04.

Take `CCCn1c(C)c(C(=O)c2ccc(OCC)c3ccccc23)c2ccccc21`: the Ratio pKi was 1.09 in assay [1] and 0.919 in assay [2].

With `CCCCCn1cc(C(=O)Cc2ccc(C)cc2)c2ccccc21`, the figures for the Ratio pKi in assay [1] and in assay [2] were 0.925 and 1.08, respectively.

Turning to `CCCCCn1cc(C(=O)c2ccc(C)c3ccccc23)c2ccccc21`, the Ratio pKi in assay [1] amounted to 0.973; in assay [2], 1.03. In addition, at Cannabinoid receptor 1, the Ki was 0.69 nM.

With `CCCn1cc(C(=O)c2cccc3cc(OC)ccc23)c2ccccc21`, the Ratio pKi in assay [1] came out at 1.22; in assay [2], 0.82.

On to `CCCCCn1c(C)c(C(=O)c2cccc3cc(OC)ccc23)c2ccccc21`, for which the Ratio pKi in assay [1] was found to be 1.21; in assay [2], 0.83.

Regarding `CCCn1cc(C(=O)c2cccc3ccc(CC)cc23)c2ccccc21`, the Ratio pKi in assay [1] was 1.07; in assay [2] it was 0.936.

Turning to `CCCCCn1c(C)c(C(=O)Cc2ccccc2OC)c2ccccc21`, the Ratio pKi stood at 0.932 in assay [1] and 1.07 in assay [2].

Consider `CCCn1cc(C(=O)c2cccc3ccc(C)cc23)c2ccccc21`, for which the Ratio pKi in assay [1] was found to be 1.04; in assay [2], 0.956.

For the compound `CCCCCn1c(C)c(C(=O)Cc2ccc(C)cc2)c2ccccc21`, the Ratio pKi in assay [1] came to 0.957; in assay [2], 1.04.

For the compound `CCCCCn1c(C)c(C(=O)c2cccc3ccc(CC)cc23)c2ccccc21`, the Ratio pKi in assay [1] came to 1.09; in assay [2] it was 0.915.

On to `CCCCCn1c(C)c(C(=O)c2ccc(CCC)c3ccccc23)c2ccccc21`, for which the results for the Ratio pKi in assay [1] and in assay [2] were 1.04 and 0.965, respectively.

Consider `CCCCCn1c(C)c(C(=O)c2ccc(OC)c3ccccc23)c2ccccc21`, for which the Ratio pKi in assay [1] was found to be 1.04; in assay [2], 0.957. The Ki on Cannabinoid receptor 2 is 1.9 nM; on Cannabinoid receptor 1 it was 4.51 nM.

As to `CCCn1c(C)c(C(=O)c2ccc(C)c3ccccc23)c2ccccc21`, the results for the Ratio pKi in assay [1] and in assay [2] were 1.14 and 0.88, respectively.

In the case of `CCCn1c(C)c(C(=O)c2ccc(OC)c3ccccc23)c2ccccc21`, the Ratio pKi in assay [1] was 1.11; in assay [2], 0.901. Besides, the Ki at Cannabinoid receptor 2 is 97.1 nM; on Cannabinoid receptor 1, 476 nM.

`CCCCCn1cc(C(=O)c2cccc3cc(OC)ccc23)c2ccccc21`: the Ratio pKi worked out at 1.19 in assay [1] and 0.843 in assay [2].

With `CCCCCn1c(C)c(C(=O)Cc2cccc(Cl)c2)c2ccccc21`, the Ratio pKi is 0.989 in assay [1] and 1.01 in assay [2].

With `CCCCCn1cc(C(=O)Cc2ccccc2Br)c2ccccc21`, the results for the Ratio pKi in assay [1] and in assay [2] were 0.953 and 1.05, respectively.

`CCCCCn1cc(C(=O)c2ccc(OC)c3ccccc23)c2ccccc21`: the Ratio pKi in assay [1] is 0.886; in assay [2] it was 1.13. Further, the Ki is 12.4 nM at Cannabinoid receptor 2 and 1.2 nM on Cannabinoid receptor 1.

Take `CCCn1cc(C(=O)c2c(OC)ccc3ccccc23)c2ccccc21`: the results for the Ratio pKi in assay [1] and in assay [2] were 1.31 and 0.764, respectively.

For the compound `CCCCCn1c(C)c(C(=O)Cc2ccccc2Cl)c2ccccc21`, the Ratio pKi was 0.963 in assay [1] and 1.04 in assay [2].

For `CCCn1cc(C(=O)c2ccc(OC)c3ccccc23)c2ccccc21`, the Ratio pKi in assay [1] came to 1.04; in assay [2], 0.961. The Ki on Cannabinoid receptor 2 is 32 nM; at Cannabinoid receptor 1, 63.1 nM.

Take `CCCCCn1cc(C(=O)c2ccc(CCCC)c3ccccc23)c2ccccc21`: the values for the Ratio pKi in assay [1] and in assay [2] were 1.04 and 0.964, respectively.

As for `CCCCCn1c(C)c(C(=O)Cc2ccccc2)c2ccccc21`, the Ratio pKi in assay [1] came out at 0.976; in assay [2] it was 1.02.

On to `CCCn1cc(C(=O)c2cccc3ccccc23)c2ccccc21`, for which the figures for the Ratio pKi in assay [1] and in assay [2] were 1.13 and 0.883, respectively. Besides, the inhibition constant (Ki) on Cannabinoid receptor 2 is 170 nM; at Cannabinoid receptor 1, 1050 nM.

For the compound `CCCCCn1c(C)c(C(=O)c2cccc3ccc(OC)cc23)c2ccccc21`, the Ratio pKi was 1.09 in assay [1] and 0.92 in assay [2].

Regarding `CCCCCn1cc(C(=O)Cc2ccccc2C)c2ccccc21`, the Ratio pKi in assay [1] was determined as 0.906; in assay [2], 1.1.

Regarding `CCCn1cc(C(=O)c2ccc(C)c3ccccc23)c2ccccc21`, the Ratio pKi is 1.37 in assay [1] and 0.728 in assay [2].

Take `CCCCCn1cc(C(=O)c2c(OC)ccc3ccccc23)c2ccccc21`: the results for the Ratio pKi in assay [1] and in assay [2] were 1.27 and 0.788, respectively.

For the compound `CCCCCn1cc(C(=O)Cc2ccc(Cl)cc2)c2ccccc21`, the Ratio pKi in assay [1] amounted to 0.983; in assay [2], 1.02.

In the case of `CCCCCn1cc(C(=O)Cc2ccccc2Cl)c2ccccc21`, the Ratio pKi is 1.01 in assay [1] and 0.993 in assay [2].

Take `CCCCCn1cc(C(=O)Cc2ccccc2F)c2ccccc21`: the Ratio pKi was determined as 0.969 in assay [1] and 1.03 in assay [2].

Turning to `CCCCCn1c(C)c(C(=O)c2c(OC)ccc3ccccc23)c2ccccc21`, the Ratio pKi in assay [1] was determined as 1.26; in assay [2], 0.792.

In the case of `CCCCCn1cc(C(=O)Cc2ccc(OC)cc2)c2ccccc21`, the Ratio pKi was 1.06 in assay [1] and 0.94 in assay [2].

As to `CCCCCn1cc(C(=O)c2ccc(OCC)c3ccccc23)c2ccccc21`, the Ratio pKi in assay [1] was 0.957; in assay [2] it was 1.04.

Take `CCCCCn1cc(C(=O)Cc2cccc(OC)c2)c2ccccc21`: the Ratio pKi in assay [1] worked out at 0.907; in assay [2] it was 1.1.

Turning to `CCCCCn1c(C)c(C(=O)c2ccc(C)c3ccccc23)c2ccccc21`, the Ratio pKi in assay [1] is 1.1; in assay [2], 0.909. On Cannabinoid receptor 1, this compound gave a Ki of 5 nM.

`CCCCCn1c(C)c(C(=O)c2ccc(CCCC)c3ccccc23)c2ccccc21`: the results for the Ratio pKi in assay [1] and in assay [2] were 1.11 and 0.901, respectively.

For `CCCn1c(C)c(C(=O)c2cccc3ccc(CC)cc23)c2ccccc21`, the Ratio pKi in assay [1] is 1.13; in assay [2], 0.887.

Turning to `CCCCCn1cc(C(=O)Cc2ccccc2OC)c2ccccc21`, the Ratio pKi in assay [1] worked out at 0.94; in assay [2], 1.06.

As to `CCCCCn1c(C)c(C(=O)Cc2cccc(F)c2)c2ccccc21`, the Ratio pKi in assay [1] was found to be 1.06; in assay [2], 0.945.

With `CCCCCn1c(C)c(C(=O)c2ccc(OCC)c3ccccc23)c2ccccc21`, the Ratio pKi was 1.01 in assay [1] and 0.991 in assay [2].

For the compound `CCCCc1ccc(C(=O)c2c(C)n(CCC)c3ccccc23)c2ccccc12`, the Ratio pKi in assay [1] worked out at 1.07; in assay [2], 0.935.

With `CCCCc1ccc(C(=O)c2cn(CCC)c3ccccc23)c2ccccc12`, the figures for the Ratio pKi in assay [1] and in assay [2] were 1.13 and 0.888, respectively.

`CCCCCn1c(C)c(C(=O)Cc2cccc(OC)c2)c2ccccc21`: the Ratio pKi was 0.981 in assay [1] and 1.02 in assay [2].

As for `CCCCCn1cc(C(=O)c2ccc(CC)c3ccccc23)c2ccccc21`, the Ratio pKi in assay [1] was 0.981; in assay [2], 1.02.

Take `CCCc1ccc(C(=O)c2cn(CCC)c3ccccc23)c2ccccc12`: the figures for the Ratio pKi in assay [1] and in assay [2] were 1.06 and 0.946, respectively.

In the case of `CCCn1cc(C(=O)c2cccc3ccc(OC)cc23)c2ccccc21`, the Ratio pKi in assay [1] came out at 1.07; in assay [2], 0.936.

Take `CCCCCn1cc(C(=O)c2ccc(CCC)c3ccccc23)c2ccccc21`: the Ratio pKi in assay [1] came out at 0.975; in assay [2] it was 1.02.

Regarding `CCCCCn1c(C)c(C(=O)c2ccc(CC)c3ccccc23)c2ccccc21`, the figures for the Ratio pKi in assay [1] and in assay [2] were 1.06 and 0.941, respectively.

Consider `CCCCCn1c(C)c(C(=O)Cc2ccc(Cl)cc2)c2ccccc21`, for which the Ratio pKi in assay [1] came out at 0.936; in assay [2], 1.07.

As for `CCCCCn1c(C)c(C(=O)Cc2ccccc2C)c2ccccc21`, the Ratio pKi in assay [1] stood at 1.01; in assay [2], 0.989.

Turning to `CCCCCn1c(C)c(C(=O)Cc2ccccc2F)c2ccccc21`, the Ratio pKi in assay [1] came out at 0.96; in assay [2], 1.04.

As for `CCCn1cc(C(=O)c2ccc(OCC)c3ccccc23)c2ccccc21`, the Ratio pKi in assay [1] amounted to 1.07; in assay [2] it was 0.934.
